Data from paper PMC12366525, “Characterization of allosteric modulators that disrupt androgen receptor co-activator protein-protein interactions to alter transactivation–Drug leads for metastatic castration resistant prostate cancer” (SLAS discovery : advancing life sciences R & D, 2023).

Columns and labels:
PSA = experiment: Dot blot of PSA secretion by C4–2 cells; assay type: cell-based, human; details: 10 nM DHT 24 h; 20 μM compound 3 h pre-exposure
Method: To determine PSA secretion levels, C4–2 cells were seeded at 1.4 × 10 [5] cells/well in 12-well plates and treated as described above for PSA cell expression experiments. […] 500 μL of conditioned media supernatant was added to the wells of 96-well to Bio-blot apparatus (BioRad, Hercules, CA) containing a nitrocellulose membrane and was allowed to pass through and attach to the membrane under gravity for 3–4 h at room temperature. The membrane was washed 1x with 500 μL TBS under vacuum, blocked with 1% BSA in TBST for 1 h, and then incubated overnight at 4 °C with the primary rabbit anti-hPSA antibody (Cell Signaling, Danvers, MA) diluted 1:1000 in TBST plus 1% BSA. Dot blots were washed 3x in 10 mL of TBST for 10 min, then incubated for 1 h with secondary goat anti-rabbit-IgG HRP conjugated antibody (Invitrogen, Carlsbad, CA) diluted 1:10,000 in TBST plus 1% Bovine Serum Albumin (BSA), washed 3x with 10 mL of TBST for 10 min, and then developed with Pierce ECL western blotting substrate. Images of ECL dot blots were acquired on an iBright 1500 imaging system and quantified by iBright image analysis software.

AR-LBD and SRC1 = target: T1, AR-LBD and SRC1 (Homo sapiens, UniProt P10275); experiment: SRC1 mammalian 2-hybrid (M2H) assay; assay type: cell-based; details: HEK 293 cells; 25 nM DHT; 27 h compound exposure; read-out: M2H AR-SRC1 CoA Recruitment IC50
T1 construct: AR-LBD amino acids 658–919 expressed as a fusion protein with Gal4-DBD; expressed in transfected cells; host or cells: HEK 293
T1 sequence (P10275 658-919): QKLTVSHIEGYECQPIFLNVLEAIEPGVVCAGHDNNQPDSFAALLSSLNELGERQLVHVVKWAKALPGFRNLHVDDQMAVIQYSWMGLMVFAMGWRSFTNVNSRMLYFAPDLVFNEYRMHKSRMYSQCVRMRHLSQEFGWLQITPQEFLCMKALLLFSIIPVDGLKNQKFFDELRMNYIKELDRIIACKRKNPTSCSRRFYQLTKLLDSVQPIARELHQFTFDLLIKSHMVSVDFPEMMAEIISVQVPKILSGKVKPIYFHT
Source text: The 5xGAL4-TATA-luciferase reporter plasmid was a gift from Dr. Richard Maurer from the Oregon Health and Science University, and constructs pGAL4-hAR-658–919 (AR-LBD amino acids 658–919 expressed as a fusion protein with Gal4-DBD), pVP16-SRC1 (full--length SRC1 expressed as a fusion with VP16 activation domain) and pVP16-Empty vector were kindly provided to us by Dr. Elizabeth Wilson, from UNC Chapel Hill. pVP16-TIF2 was generated as described previously. HEK 293 cells were transiently co-transfected with 5 ng of pGal4-AR-LBD, 10 ng of either pVP16-TIF2 or pVP16-SRC1, and 20 ng of the 5xGal4-TATA-Luc reporter as described previously. HEK 293 cells were bulk co-transfected with the three plasmids that had been individually incubated with Fugene 6 at a 3:1 ratio for 25 min at room temperature (RT) in serum free media (SFM) and then combined with HEK 293 cells that were suspended in DMEM (Cellgro10013CV) with 2 mM L-glutamine (Invitrogen) that was supplemented with 10% fetal bovine serum, and 5000 cells in a volume of 40 μL were seeded into the wells of white opaque 384-well assay plates (Greiner Bio-one, #781080) and cultured overnight at 37 °C, 5% CO2, and 95% humidity. […] 25 μL of BrightGlo® reagent was added to the plate and the relative luminescence units (RLUs) were captured on a SpectraMax M5e microtiter plate reader (Molecular Devices, LLC, San Jose, CA).

TIF2 = target: T2, TIF2 (Homo sapiens, UniProt Q15596); experiment: Western blotting cellular thermal shift assay for TIF2 in C4–2 cells; assay type: cell-based; details: 20 μM 1 h at 37 °C prior to heat shock at 46 °C
T2 construct: endogenous in cells; host or cells: C4–2 cells
Method: C4–2 cells were harvested by trypsinization, washed 1x by centrifugation at 270 × g for 5 min and resuspension in PBS, counted, centrifugated at 270 × g for 5 min and resuspended at 7 × 10 [6] cells per mL in Opti-MEM medium (Gibco, Gaithersburg, MD). 50 μL of C4–2 cell suspension (3.5 × 10 [5] cells) were then transferred to PCR tubes that were placed in a T-100 thermocycler (BioRad, Hercules, CA) and a 2 °C interval temperature step gradient from 37 °C to 53 °C was applied. Cells were maintained at each step of the temperature gradient for 5 min and then tubes were withdrawn and placed on ice. 50 μL of cell lysis buffer, 500 mM NaCl, 1% NP-40, 1x protease inhibitor cocktail in PBS were added to the heat shocked cell suspensions in PCR tubes and placed on ice for an additional 30 min. Cell lysates were then centrifuged at 14,000 RPM (18,800 × g) at 4 °C for 15 min and supernatants were transferred to new tubes and protein concentrations were determined in a bicinchoninic acid (BCA) assay. 45 μL of cell lysis supernatants were mixed with 15 μL of 5x SDS-PAGE sample buffer and placed in a heat block at 100 °C for 5 min. The protein constituents of heat shocked C4–2 cell lysis supernatants were separated by SDS-PAGE on 8% separating gels, transferred to nitrocellulose membranes that were blocked for 1 h at room temperature in 5% non-fat milk in TBST, and then probed overnight at 4 °C with a 1:1000 dilution of either rabbit anti-AR (Cell Signaling, Danvers, MA) or rabbit anti-TIF2 (Bethyl Laboratories, Waltham, MA) primary antibodies in TBST containing 5% non-fat milk. Membranes were then washed 3x in TBST buffer for 10 min, then incubated with a 1:10,000 dilution of the goat anti-rabbit IgG HRP conjugated secondary antibody (Invitrogen, Carlsbad,CA) in TBST containing 5% non-fat milk for 1 h at room temperature. Western blots were then washed 3x in TBST buffer and developed with Pierce ECL western blotting substrate. Images of ECL western blots were acquired on an iBright 1500 imaging system and quantified using the iBright image analysis software.

T2 sequence (Q15596 whole entry): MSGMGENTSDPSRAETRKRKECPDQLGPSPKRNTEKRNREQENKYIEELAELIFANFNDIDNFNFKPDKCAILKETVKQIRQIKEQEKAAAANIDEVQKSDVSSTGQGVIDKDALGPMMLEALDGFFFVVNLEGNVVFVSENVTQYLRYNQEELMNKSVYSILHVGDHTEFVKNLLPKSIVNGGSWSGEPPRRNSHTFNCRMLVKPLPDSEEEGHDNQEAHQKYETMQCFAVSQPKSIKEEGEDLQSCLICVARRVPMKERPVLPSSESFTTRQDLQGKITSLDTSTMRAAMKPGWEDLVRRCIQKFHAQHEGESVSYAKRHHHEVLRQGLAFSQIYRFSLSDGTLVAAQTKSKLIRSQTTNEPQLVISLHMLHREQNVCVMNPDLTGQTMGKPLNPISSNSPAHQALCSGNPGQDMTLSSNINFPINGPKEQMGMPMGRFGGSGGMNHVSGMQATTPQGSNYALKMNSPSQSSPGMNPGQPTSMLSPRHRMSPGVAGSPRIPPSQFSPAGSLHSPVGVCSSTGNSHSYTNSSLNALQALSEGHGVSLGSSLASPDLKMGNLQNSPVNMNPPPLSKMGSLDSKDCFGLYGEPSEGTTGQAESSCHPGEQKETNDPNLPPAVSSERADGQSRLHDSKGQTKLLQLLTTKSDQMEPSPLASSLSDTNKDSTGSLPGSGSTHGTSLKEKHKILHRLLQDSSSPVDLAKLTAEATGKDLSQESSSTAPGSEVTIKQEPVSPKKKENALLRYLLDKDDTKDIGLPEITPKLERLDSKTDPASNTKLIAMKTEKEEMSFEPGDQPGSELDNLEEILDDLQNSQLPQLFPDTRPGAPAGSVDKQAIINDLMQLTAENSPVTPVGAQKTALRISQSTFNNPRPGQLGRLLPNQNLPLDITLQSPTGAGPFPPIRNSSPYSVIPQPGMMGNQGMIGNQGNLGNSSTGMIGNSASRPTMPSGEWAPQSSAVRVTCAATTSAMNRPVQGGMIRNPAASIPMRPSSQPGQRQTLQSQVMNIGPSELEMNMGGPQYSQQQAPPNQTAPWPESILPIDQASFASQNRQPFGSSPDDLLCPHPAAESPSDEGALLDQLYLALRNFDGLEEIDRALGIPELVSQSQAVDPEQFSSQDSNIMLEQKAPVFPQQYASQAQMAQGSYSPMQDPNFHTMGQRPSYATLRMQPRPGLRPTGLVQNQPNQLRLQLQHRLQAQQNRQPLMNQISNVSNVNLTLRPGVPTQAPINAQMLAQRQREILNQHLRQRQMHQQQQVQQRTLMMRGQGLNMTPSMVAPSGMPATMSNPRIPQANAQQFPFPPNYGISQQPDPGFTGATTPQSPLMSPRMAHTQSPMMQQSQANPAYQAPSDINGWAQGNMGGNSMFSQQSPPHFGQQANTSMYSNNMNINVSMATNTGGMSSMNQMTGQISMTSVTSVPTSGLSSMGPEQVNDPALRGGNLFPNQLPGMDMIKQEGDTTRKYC

Cc1ccccc1-c1cc(O)c2c(c1)CN(c1nc(C(N)=O)cs1)CCO2 [S1–1]
C4-2 cell supernatants PSA Dot Blot, relative to DMSO (100%) (PSA): 57.7%
IC50 (AR-LBD and SRC1): 3.57 µM
Effect on TIF2 thermal stability (TIF2): did not enhance TIF2 thermal stability over DMSO

Cc1ccccc1-c1cc(O)c2c(c1)CN(c1nccs1)CCO2 [S1–3]
IC50 (AR-LBD and SRC1): 5.19 µM

Cc1nsc(NC(=O)N2CCC(Sc3ccccc3C)CC2)n1 [S2–6]
C4-2 cell supernatants PSA Dot Blot, relative to DMSO (100%) (PSA): 12.8%
IC50 (AR-LBD and SRC1): 0.46 µM
Effect on TIF2 thermal stability (TIF2): did not enhance TIF2 thermal stability over DMSO

Cc1c(-c2ccccc2F)[nH]c2ccc(CNC(=O)CCc3cn[nH]c3)cc12 [S3–11]
C4-2 cell supernatants PSA Dot Blot, relative to DMSO (100%) (PSA): 25.5%
IC50 (AR-LBD and SRC1): 4.79 µM
Effect on TIF2 thermal stability (TIF2): did not enhance TIF2 thermal stability over DMSO

Cc1c(-c2ccccc2F)[nH]c2ccc(CNC(=O)CCc3cnccn3)cc12 [S3–12]
IC50 (AR-LBD and SRC1): 3.93 µM

CC(=O)NCCC(=O)NCc1ccc2[nH]c(-c3ccccc3F)c(C)c2c1 [S3–13]
IC50 (AR-LBD and SRC1): 11.7 µM

Cc1c(-c2ccccc2F)[nH]c2ccc(CNC(=O)c3ccc(CO)o3)cc12 [S3–14]
IC50 (AR-LBD and SRC1): 2.5 µM

Cc1c(-c2ccc(F)cc2)[nH]c2ccc(CNC(=O)c3ccc(CO)o3)cc12 [S3–15]
IC50 (AR-LBD and SRC1): 2.99 µM
